In the NIST ThermoML archive (doi:10.1016/j.fluid.2014.04.002):

Assay: refractive index (Na D-line) (dimensionless); xn = mol fraction of the nth substance listed
Settings: 101 kPa, Liquid, Standard Abbe refractometry

COCCOCCOCCOCCOC [2,5,8,11,14-pentaoxapentadecane] + CCOC(=O)C(C)O
refractive index
Settings | x2 = 0 | x2 = 0.0999 | x2 = 0.1999 | x2 = 0.2999 | x2 = 0.3998 | x2 = 0.4999 | x2 = 0.6001 | x2 = 0.6998 | x2 = 0.8001 | x2 = 0.9
288.15 K | 1.43553 | 1.43413 | 1.43253 | 1.43141 | 1.42997 | 1.42831 | 1.42648 | 1.42438 | 1.42214 | 1.41886
293.15 K | 1.43338 | 1.43195 | 1.4304 | 1.42925 | 1.42782 | 1.42614 | 1.42431 | 1.42219 | 1.4199 | 1.41662
298.15 K | 1.43123 | 1.42983 | 1.42826 | 1.42712 | 1.42566 | 1.42398 | 1.42212 | 1.41995 | 1.41764 | 1.41436
303.15 K | 1.42906 | 1.42761 | 1.42612 | 1.42496 | 1.42351 | 1.4218 | 1.41993 | 1.41778 | 1.41537 | 1.41208
308.15 K | 1.42697 | 1.42558 | 1.42399 | 1.4228 | 1.42135 | 1.41964 | 1.41774 | 1.41556 | 1.41312 | 1.4098
313.15 K | 1.42447 | 1.42319 | 1.42182 | 1.42059 | 1.41916 | 1.41744 | 1.41552 | 1.41332 | 1.41084 | 1.40749
318.15 K | 1.42206 | 1.42095 | 1.41972 | 1.41848 | 1.41703 | 1.41528 | 1.41335 | 1.41108 | 1.40853 | 1.40517
323.15 K | 1.41985 | 1.4188 | 1.41762 | 1.41635 | 1.41488 | 1.41315 | 1.41119 | 1.40889 | 1.40622 | 1.40288

CCOC(=O)C(C)O (stereo not drawn) [DL-ethyl lactate] + C1CCOC1
refractive index
Settings | x1 = 0.1002 | x1 = 0.2001 | x1 = 0.3001 | x1 = 0.4001 | x1 = 0.4999 | x1 = 0.5999 | x1 = 0.6999 | x1 = 0.7999 | x1 = 0.8997 | x1 = 1
288.15 K | 1.41059 | 1.41119 | 1.4118 | 1.41241 | 1.41298 | 1.41349 | 1.41393 | 1.41431 | 1.41475 | 1.41537
293.15 K | 1.40801 | 1.40867 | 1.40932 | 1.40998 | 1.41058 | 1.41112 | 1.41157 | 1.41197 | 1.41242 | 1.41307
298.15 K | 1.40539 | 1.40614 | 1.40687 | 1.40756 | 1.40816 | 1.40871 | 1.40922 | 1.40965 | 1.41017 | 1.41076
303.15 K | 1.40277 | 1.40359 | 1.40438 | 1.4051 | 1.40571 | 1.40628 | 1.40684 | 1.4073 | 1.40787 | 1.40843
308.15 K | 1.40015 | 1.40102 | 1.40187 | 1.40264 | 1.40326 | 1.40392 | 1.40445 | 1.40493 | 1.40546 | 1.4061
313.15 K | 1.3975 | 1.39842 | 1.39936 | 1.40014 | 1.4008 | 1.40149 | 1.40205 | 1.40255 | 1.4031 | 1.40374
318.15 K | 1.39481 | 1.39578 | 1.39672 | 1.39755 | 1.39831 | 1.39899 | 1.3996 | 1.40015 | 1.4007 | 1.40136
323.15 K | 1.39211 | 1.39315 | 1.39416 | 1.39503 | 1.39583 | 1.39655 | 1.3972 | 1.39778 | 1.39834 | 1.39898
